Laboratory results as given in patent US6667387B1, “HCV core peptides” (priority 1992, dated 2003).
Ends that are not written are not given here.

Experiments:
[1] = test system: antibodies in sera from HCV-seropositive donors; experiment: ELISA with HCV antibody-positive sera (biotinylated peptides on streptavidin- or avidin-coated plates, unbiotinylated peptides coated directly); format: binding, human; conditions: for optical density (450 nm): 20-fold dilution; for PEPTIDE ELISA (O.D.): Table 12, biotinylated 20-mers
Description: (§1) Where peptides were to be coated directly, stock solutions of the peptides were diluted in sodium carbonate buffer, pH 9.6 and used to coat polystyrene microtiter plates at a peptide concentration of 2 to 5 micrograms per milliliter for 1 hour at 37° C.
(§2) In cases where biotinylated peptides were to be evaluated, plates were first coated with streptavidin in sodium carbonate buffer, pH 9.6 at a concentration of 3 micrograms per milliliter for 1 hour at 37° C. The plates were then washed to remove excess, unbound protein. A working solution of the biotinylated peptide at 1 microgram per milliliter in sodium carbonate buffer was then added to the wells of the microtiter plate and incubated for 1 hours at 37° C.
(§3) Once the plates had been coated with antigen, any remaining free binding sites on the plastic were blocked with casein. After washing, a dilution of the appropriate antisera, usually 1:100, was added to the wells of the plates and incubated for 1 hour at 37° C.
(§4) After washing to remove unbound material, specific antibody binding was detected by incubating the plates with goat anti-human immunoglobulin antibodies conjugated to the enzyme horseradish peroxidase. Following removal of unbound conjugate by washing, a solution containing H2O2 and 3,3′,5,5′-tetramethylbenzidine was added.
(§5) Reactions were stopped after a suitable interval by addition of sulfuric acid. […] Absorbance measurements were made at a wavelength of 450 nanometers and all data are expressed as an optical density value at this wavelength.
The unbiotinylated peptides were adsorbed onto the wells of polystyrene microtiter plates at a concentration of 3 micrograms per milliliter.
The biotinylated peptides were bound at a concentration of 1 microgram per milliliter to streptavidin-coated microtiter plates. Sera known to contain antibodies to these peptides were used for the evaluation and were tested at a 20-fold dilution.
To investigate further the enhanced antibody recognition of biotinylated HCV peptides bound to streptavidin or avidin as compared to direct adsorption on plastic, the influence of peptide coating concentration was investigated. Three peptides (HCV peptides II, XI, and XVI) were coated in concentrations ranging from 10 nanograms per milliliter to 3 micrograms per milliliter in a volume of 200 microliters per microtiter plate well. For direct coating, the unbiotinylated versions of these peptides were used. The biotinylated versions of these peptides were used to coat wells to which streptavidin had previously been adsorbed. Sera known to contain antibodies to these peptides were used at a dilution of 1 to 100 to evaluate the magnitude of antibody binding.
(§6) Unbiotinylated HCV peptide I was coated directly onto the wells of a polystyrene ELISA plate at a concentration of 3 micrograms per milliliter in sodium carbonate buffer, pH 9.6. Biotinylated HCV peptide I was bound to streptavidin-coated wells using a stock solution containing the peptide at a concentration of 1 microgram per milliliter. The resulting plates were then incubated in parallel with a panel of sera from HCV-seropositive donors. […] Two of the sera (8326 and 8244) recognize the biotinylated version of this peptide far better than the unbiotinylated version. The specificity of the antibody reaction is also reflected by the low optical density values obtained for 5 serum samples from uninfected donors (F88, F89, F76, F136, and F6).
To determine how well biotinylated peptides would function in a mixture when bound to streptavidin- or avidin-coated plates, two mixtures were made of the N-terminally biotinylated versions of the HIV-1 peptides TM-HIV-1 (hereabove referred to as 1a.1) and V3-nm (hereabove referred to as 1b.4), the HIV-2 peptide TM-HIV-2 (hereabove referred to as 2a), and the hepatitis C virus peptides II, IX, and XVIII. […]

[2] = ELISA with seronegative / negative control sera (specificity); format: binding, human; conditions: negative serum
Description: as §1, §2, §3, §4, §5, §6
To determine how well biotinylated peptides would function in a mixture when bound to streptavidin- or avidin-coated plates, two mixtures were made of the N-terminally biotinylated versions of the HIV-1 peptides TM-HIV-1 (hereabove referred to as 1a.1) and V3-nm (hereabove referred to as 1b.4), the HIV-2 peptide TM-HIV-2 (hereabove referred to as 2a), and the hepatitis C virus peptides II, IX, and XVIII. Mixture A contained each of the six biotinylated peptides at a concentration of 1 microgram per milliliter (6 micrograms per milliliter peptide, total) while in mixture B, each peptide was present at a concentration of 0.1 microgram per milliliter (0.6 microgram per milliliter peptide, total). The individual peptides were coated at a concentration of 1 microgram per milliliter. For purposes of comparison, mixtures A and B were also coated directly onto the wells of a microtiter plate. Samples from HIV-1, HIV-2, and HCV-seropositive donors were tested and compared to sera from seronegative blood donors. A cut-off absorbance value of 0.250 was used to determine whether a reaction was positive or negative. Absorbance values equal or greater than 0.250 were considered positive while absorbance values below this value were considered negative.

Leu-Arg-Lys-Ser-Arg-Arg-Phe-Ala-Gln-Ala-Leu-Pro-Val-Trp-Ala-Arg-Pro-Asp-Tyr-Asn [Peptide XVI] (LRKSRRFAQALPVWARPDYN; printed: Leu-Arg-Lys-Ser-Arg-Arg-Phe-Ala-Gln-Ala-Leu-Pro-Val-Trp-Ala-Arg-Pro-Asp-Tyr-Asn)
optical density (450 nm) ([1]; Table 4B, serum 1): 2.435 | optical density (450 nm) ([1]; Table 4B, serum 2): 1.239 | optical density (450 nm) ([1]; Table 4B, serum 6): 1.595 | optical density (450 nm) ([1]; Table 4B, serum 8): 1.599 | optical density (450 nm) ([1]; Table 4B, serum 10): 2.847 | optical density (450 nm) ([1]; Table 4B, serum 26): 1.522 | optical density (450 nm) ([1]; Table 4B, serum 83): 2.221 | optical density (450 nm) ([1]; Table 4B, serum 88): 2.519 | optical density (450 nm) ([1]; Table 4B, serum 89): 1.530 | optical density (450 nm) ([1]; Table 4B, serum 91): 2.169 | optical density (450 nm) ([1]; Table 4B, serum 95): 1.484 | optical density (450 nm) ([1]; Table 4B, serum 99): 2.045 | optical density (450 nm) ([1]; Table 4B, serum 100): 1.637 | optical density (450 nm) ([1]; Table 4B, serum 104): 0.942 | optical density (450 nm) ([1]; Table 4B, serum 105): 2.186 | optical density (450 nm) ([1]; Table 4B, serum 110): 1.484 | optical density (450 nm) ([1]; Table 4B, serum 111): 1.465 | optical density (450 nm) ([1]; Table 4B, serum 112): 1.084 | optical density (450 nm) ([1]; Table 4B, serum 113): 2.535 | optical density (450 nm) ([1]; Table 4B, serum 116): 1.918 | optical density (450 nm) ([1]; Table 4B, serum 120): 2.332 | optical density (450 nm) ([1]; Table 4B, serum 266): 2.262 | optical density (450 nm) ([1]; Table 4B, serum 8247): 0.618 | optical density (450 nm) ([1]; Table 4B, serum 11476): 2.197 | optical density (450 nm) ([1]; Table 4B, serum 24758): 0.062 | PEPTIDE ELISA (O.D.) ([1]; serum 0843): 1.444 | PEPTIDE ELISA (O.D.) ([1]; serum 8240): 0.388 | PEPTIDE ELISA (O.D.) ([1]; serum 8241): 2.456 | PEPTIDE ELISA (O.D.) ([1]; serum 8242): 2.318 | PEPTIDE ELISA (O.D.) ([1]; serum 8332): 2.130 | PEPTIDE ELISA (O.D.) ([1]; serum 8339): 2.859 | PEPTIDE ELISA (O.D.) ([1]; serum 8350): 2.249 | PEPTIDE ELISA (O.D.) ([1]; serum 8377): 2.336 | PEPTIDE ELISA (O.D.) ([1]; serum 8378): 1.602 | PEPTIDE ELISA (O.D.) ([1]; serum 8388): 0.390 | optical density (450 nm) ([2]; Table 4B): 0.067

Leu-Arg-Lys-Ser-Arg-Arg-Phe-Ala-Gln-Ala-Leu-Pro-Val-Trp-Ala-Arg-Pro-Asp-Tyr-Asn [Unbiotinylated peptide XVI] (LRKSRRFAQALPVWARPDYN; printed: Leu-Arg-Lys-Ser-Arg-Arg-Phe-Ala-Gln-Ala-Leu-Pro-Val-Trp-Ala-Arg-Pro-Asp-Tyr-Asn)
optical density (450 nm) ([1]; Table 4B, serum 1): 1.038 | optical density (450 nm) ([1]; Table 4B, serum 2): 0.616 | optical density (450 nm) ([1]; Table 4B, serum 6): 0.100 | optical density (450 nm) ([1]; Table 4B, serum 8): 0.329 | optical density (450 nm) ([1]; Table 4B, serum 10): 1.033 | optical density (450 nm) ([1]; Table 4B, serum 26): 0.053 | optical density (450 nm) ([1]; Table 4B, serum 83): 0.912 | optical density (450 nm) ([1]; Table 4B, serum 88): 1.187 | optical density (450 nm) ([1]; Table 4B, serum 89): 0.495 | optical density (450 nm) ([1]; Table 4B, serum 91): 0.197 | optical density (450 nm) ([1]; Table 4B, serum 95): 0.109 | optical density (450 nm) ([1]; Table 4B, serum 99): 0.814 | optical density (450 nm) ([1]; Table 4B, serum 100): 0.474 | optical density (450 nm) ([1]; Table 4B, serum 104): 0.205 | optical density (450 nm) ([1]; Table 4B, serum 105): 0.313 | optical density (450 nm) ([1]; Table 4B, serum 110): 0.762 | optical density (450 nm) ([1]; Table 4B, serum 111): 0.193 | optical density (450 nm) ([1]; Table 4B, serum 112): 0.253 | optical density (450 nm) ([1]; Table 4B, serum 113): 0.833 | optical density (450 nm) ([1]; Table 4B, serum 116): 0.058 | optical density (450 nm) ([1]; Table 4B, serum 120): 0.964 | optical density (450 nm) ([1]; Table 4B, serum 266): 0.712 | optical density (450 nm) ([1]; Table 4B, serum 8247): 0.059 | optical density (450 nm) ([1]; Table 4B, serum 11476): 0.068 | optical density (450 nm) ([1]; Table 4B, serum 24758): 0.071 | optical density (450 nm) ([2]; Table 4B): 0.063

RNTNRRPQDVKFPGGGQIVG [listing 1 of 2 here]
optical density (450 nm) ([1]; Table 4D, serum 8241): 2.066 | optical density (450 nm) ([1]; Table 4D, serum 8242): 2.197 | optical density (450 nm) ([1]; Table 4D, serum 8243): 2.368 | optical density (450 nm) ([1]; Table 4D, serum 8247): 2.398 | optical density (450 nm) ([1]; Table 4D, serum 8248): 2.918 | optical density (450 nm) ([1]; Table 4D, serum 8250): 2.626 | optical density (450 nm) ([1]; Table 4D, serum 8271): 2.066 | optical density (450 nm) ([1]; Table 4D, serum 8272): 2.638 | optical density (450 nm) ([1]; Table 4D, serum 8273): 2.697 | optical density (450 nm) ([1]; Table 4D, serum 8274): 2.905 | optical density (450 nm) ([1]; Table 4D, serum 8275): 2.640 | optical density (450 nm) ([1]; Table 4D, serum 8276): 2.674 | optical density (450 nm) ([1]; Table 4D, serum 8277): 2.327 | PEPTIDE ELISA (O.D.) ([1]; serum 0843): 2.368 | PEPTIDE ELISA (O.D.) ([1]; serum 8240): 2.918 | PEPTIDE ELISA (O.D.) ([1]; serum 8241): 2.066 | PEPTIDE ELISA (O.D.) ([1]; serum 8242): 2.197 | PEPTIDE ELISA (O.D.) ([1]; serum 8332): 2.054 | PEPTIDE ELISA (O.D.) ([1]; serum 8339): 2.765 | PEPTIDE ELISA (O.D.) ([1]; serum 8350): 2.135 | PEPTIDE ELISA (O.D.) ([1]; serum 8377): 2.368 | PEPTIDE ELISA (O.D.) ([1]; serum 8378): 2.369 | PEPTIDE ELISA (O.D.) ([1]; serum 8388): 2.463 | optical density (450 nm) ([2]; Table 4D): 0.06

RNTNRRPQDVKFPGGGQIVG [listing 2 of 2 here]
optical density (450 nm) ([1]; Table 4D, serum 8241): 1.219 | optical density (450 nm) ([1]; Table 4D, serum 8242): 1.976 | optical density (450 nm) ([1]; Table 4D, serum 8243): 1.859 | optical density (450 nm) ([1]; Table 4D, serum 8247): 1.072 | optical density (450 nm) ([1]; Table 4D, serum 8248): 2.742 | optical density (450 nm) ([1]; Table 4D, serum 8250): 2.471 | optical density (450 nm) ([1]; Table 4D, serum 8271): 1.471 | optical density (450 nm) ([1]; Table 4D, serum 8272): 2.471 | optical density (450 nm) ([1]; Table 4D, serum 8273): 1.543 | optical density (450 nm) ([1]; Table 4D, serum 8274): 2.503 | optical density (450 nm) ([1]; Table 4D, serum 8275): 1.595 | optical density (450 nm) ([1]; Table 4D, serum 8276): 1.976 | optical density (450 nm) ([1]; Table 4D, serum 8277): 0.735 | optical density (450 nm) ([2]; Table 4D): 0.050
